The assay can be described thus: Oral sensory evaluation of 50-ppm aqueous solutions by ten special panelists. As to conditions: 50-ppm aqueous solution. The class given is in vivo, human. The method, then:
Using 3-1-menthoxy-1-propanol (1) obtained in Example 1, the mixture (2) of 3-1-menthoxy-1-propanol and 1-1-menthoxy-2-propanol at a weight ratio of 93:7 obtained in Example 2, and 1-1-menthoxy-2-propanol (3) obtained in Example 1, 50-ppm aqueous solutions were prepared.
The three 50-ppm aqueous solutions were subjected to oral sensory evaluation by ten special panelists with five or more years of experience.

Consider `CC1CCC(C(C)C)C(OCCCO)C1` (centres unmarked) [(1), 3-1-menthoxy-1-propanol], for which, under “all the ten panelists”, the refreshing sensation result is recorded as “marked refreshing sensation”. In addition, where the note is “seven of the ten panelists”, the “strength and persistence of refreshing sensation” value is “stronger and long-lasting refreshing sensation”.

Source of the values: US20140328771A1, “METHOD FOR PRODUCING 3-MENTHOXY PROPANOL AND COMPOSITIONS FOR IMPARTING COOLING SENSATION” (Takasago International Corporation, priority 2011, published 2014).
